Measurements taken from US20110159520A1, “HYBRID PROTEINS COMPRISING MEMBRANE RECEPTOR AND ION CHANNEL, AND THEIR USE AS BIOSENSORS” (UNIVERSITE JOSEPH FOURIER, priority 2008, published 2011).

Experiments:
[1] = target: T1, M2−K 0-25 hybrid protein (UniProt P08172+Q61743); type: cell-based, human M2, mouse Kir6.2
T1 construct: expressed in transfected cells; host or cells: Xenopus oocytes injected with cRNA (whole-cell TEVC, or outside-out patches excised from them)
T1 sequence (P08172+Q61743 with tags, fused parts or gaps): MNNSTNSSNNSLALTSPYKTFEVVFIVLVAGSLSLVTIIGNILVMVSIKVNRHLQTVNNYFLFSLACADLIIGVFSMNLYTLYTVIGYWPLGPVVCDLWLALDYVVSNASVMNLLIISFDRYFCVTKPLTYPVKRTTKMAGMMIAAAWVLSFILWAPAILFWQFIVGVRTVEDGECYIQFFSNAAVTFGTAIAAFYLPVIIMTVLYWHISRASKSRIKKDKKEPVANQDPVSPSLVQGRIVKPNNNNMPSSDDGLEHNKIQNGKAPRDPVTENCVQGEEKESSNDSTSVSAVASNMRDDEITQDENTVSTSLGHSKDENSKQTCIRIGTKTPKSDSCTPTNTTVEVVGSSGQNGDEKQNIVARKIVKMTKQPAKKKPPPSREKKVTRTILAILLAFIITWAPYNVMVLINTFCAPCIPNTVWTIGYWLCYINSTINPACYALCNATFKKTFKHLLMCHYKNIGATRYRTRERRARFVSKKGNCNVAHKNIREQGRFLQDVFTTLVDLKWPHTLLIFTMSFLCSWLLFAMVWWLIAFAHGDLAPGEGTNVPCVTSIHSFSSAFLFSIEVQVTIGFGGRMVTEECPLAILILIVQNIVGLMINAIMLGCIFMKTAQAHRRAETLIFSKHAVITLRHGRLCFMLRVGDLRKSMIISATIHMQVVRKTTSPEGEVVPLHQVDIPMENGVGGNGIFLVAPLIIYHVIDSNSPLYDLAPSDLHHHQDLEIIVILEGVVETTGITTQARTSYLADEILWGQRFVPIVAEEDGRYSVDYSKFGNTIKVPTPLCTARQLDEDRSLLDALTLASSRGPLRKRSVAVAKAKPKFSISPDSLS
Method: Xenopus oocytes defoliculated by collagenase treatment were microinjected with 50 nl of water containing one or a mixture of the following quantities of cRNA:
Oocytes were incubated in individual wells in Barth's solution (KCl 1 mM, MgSO4 0.82 mM, NaCl 88 mM, NaHCO3 2.4 mM, CaCl2 0.41 mM, Ca(NO3)2 0.3 mM, Hepes 16 mM, pH 7.4) supplemented with 100 U·ml^−1 penicillin, 100 μg ml^−1 streptomycin and […] gentamycin, for at least 48 hrs at 19° C. before characterization.
(§1) Whole-cell currents were measured using two-electrode voltage clamp (TEVC). Microelectrodes were filled with 3 M KCl and oocytes were bathed in a solution having (in mM): 91 KCl, 1.8 CaCl2, 1 MgCl2, 5 HEPES (pH 7.4) and 0.3 niflumic acid to block endogenous chloride current.
Unless otherwise specified, the concentration of M2 ligands was 5 μM.
(§2) The TEVC voltage protocol consisted of 500-ms steps to −50, 0 and +50 mV—during which current was measured—repeated every 5 s, the holding potential being 0 mV.
(§3) Average values are presented as mean±s.e.m. Non-linear least-square curve fitting to the data points obtained at various concentrations of activating or inhibiting ligands was done using a standard Hill equation: […]
Ba^2+ was used as a generic K^+ channel blocker. Percent changes in current were calculated with respect to the baseline extrapolated from measurements of Ba^2+-sensitive currents before and after agonist application. This method emphasizes reversibility and provides an underestimate of the true effects. For dose-response data, which were acquired by applying sequentially increasing concentrations of modulator to the same patch or oocyte, changes in current could only be measured with respect to the current before application, yielding somewhat larger values.

[2] = system: CCR2 chemokine receptor fused to Kir6.2 deleted in its N-terminus part; assay: Electric flux of CCR2-Kir6.2 fusion protein; type: cell-based; conditions: final concentration from about 0.3 μM to about 2 μM
Sequence of CCR2 chemokine receptor fused to Kir6.2 deleted in its N-terminus part (P41597 1-313 limits assumed): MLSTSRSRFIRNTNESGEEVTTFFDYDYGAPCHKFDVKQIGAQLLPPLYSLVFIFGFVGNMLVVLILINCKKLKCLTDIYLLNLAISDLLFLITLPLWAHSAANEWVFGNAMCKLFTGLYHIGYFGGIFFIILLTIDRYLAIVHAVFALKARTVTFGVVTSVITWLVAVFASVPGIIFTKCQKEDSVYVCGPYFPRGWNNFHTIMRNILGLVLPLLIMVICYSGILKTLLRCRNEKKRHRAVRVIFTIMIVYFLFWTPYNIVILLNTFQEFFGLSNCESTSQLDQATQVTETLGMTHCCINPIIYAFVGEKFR

[3] = target: T2, M2−K 0-20 hybrid protein (UniProt P08172+Q61743); assay: TEVC recordings from xenopus oocytes expressing M2−K 0-20; type: cell-based, human M2, mouse Kir6.2
T2 construct: expressed in transfected cells; host or cells: Xenopus oocytes injected with cRNA
T2 sequence (P08172+Q61743 with tags, fused parts or gaps): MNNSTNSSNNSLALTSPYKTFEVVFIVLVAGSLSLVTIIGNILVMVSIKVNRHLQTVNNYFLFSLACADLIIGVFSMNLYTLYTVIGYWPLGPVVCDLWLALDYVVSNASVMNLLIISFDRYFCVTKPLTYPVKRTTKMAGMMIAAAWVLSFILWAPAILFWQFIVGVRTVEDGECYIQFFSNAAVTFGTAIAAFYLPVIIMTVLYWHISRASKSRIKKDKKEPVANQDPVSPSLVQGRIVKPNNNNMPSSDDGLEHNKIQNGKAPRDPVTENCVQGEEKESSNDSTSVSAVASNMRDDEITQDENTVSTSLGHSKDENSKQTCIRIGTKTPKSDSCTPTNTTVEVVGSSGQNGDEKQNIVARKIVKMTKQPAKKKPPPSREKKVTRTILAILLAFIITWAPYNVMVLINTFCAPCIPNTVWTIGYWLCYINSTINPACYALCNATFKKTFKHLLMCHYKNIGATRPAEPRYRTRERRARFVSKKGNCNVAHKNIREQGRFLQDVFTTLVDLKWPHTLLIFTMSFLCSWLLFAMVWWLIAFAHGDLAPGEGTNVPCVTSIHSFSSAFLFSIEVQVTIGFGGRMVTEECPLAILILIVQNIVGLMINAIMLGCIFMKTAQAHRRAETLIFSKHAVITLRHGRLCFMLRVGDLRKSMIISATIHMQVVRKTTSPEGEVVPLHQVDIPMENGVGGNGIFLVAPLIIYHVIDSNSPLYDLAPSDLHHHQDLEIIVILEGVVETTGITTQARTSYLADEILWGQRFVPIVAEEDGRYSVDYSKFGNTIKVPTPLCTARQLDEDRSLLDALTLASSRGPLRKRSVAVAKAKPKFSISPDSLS
Method: as §1, §2, §3
(§4) Ba^2+ was used as a generic K^+ channel blocker. Percent changes in current were calculated with respect to the baseline extrapolated from measurements of Ba^2+-sensitive currents before and after agonist application.

[4] = target: D2-K 0-25 hybrid protein (UniProt P14416+Q61743); conditions: sulpiride 5 μM during quinpirole 5 μM
Sequence of D2-K 0-25 hybrid protein (P14416+Q61743 fused): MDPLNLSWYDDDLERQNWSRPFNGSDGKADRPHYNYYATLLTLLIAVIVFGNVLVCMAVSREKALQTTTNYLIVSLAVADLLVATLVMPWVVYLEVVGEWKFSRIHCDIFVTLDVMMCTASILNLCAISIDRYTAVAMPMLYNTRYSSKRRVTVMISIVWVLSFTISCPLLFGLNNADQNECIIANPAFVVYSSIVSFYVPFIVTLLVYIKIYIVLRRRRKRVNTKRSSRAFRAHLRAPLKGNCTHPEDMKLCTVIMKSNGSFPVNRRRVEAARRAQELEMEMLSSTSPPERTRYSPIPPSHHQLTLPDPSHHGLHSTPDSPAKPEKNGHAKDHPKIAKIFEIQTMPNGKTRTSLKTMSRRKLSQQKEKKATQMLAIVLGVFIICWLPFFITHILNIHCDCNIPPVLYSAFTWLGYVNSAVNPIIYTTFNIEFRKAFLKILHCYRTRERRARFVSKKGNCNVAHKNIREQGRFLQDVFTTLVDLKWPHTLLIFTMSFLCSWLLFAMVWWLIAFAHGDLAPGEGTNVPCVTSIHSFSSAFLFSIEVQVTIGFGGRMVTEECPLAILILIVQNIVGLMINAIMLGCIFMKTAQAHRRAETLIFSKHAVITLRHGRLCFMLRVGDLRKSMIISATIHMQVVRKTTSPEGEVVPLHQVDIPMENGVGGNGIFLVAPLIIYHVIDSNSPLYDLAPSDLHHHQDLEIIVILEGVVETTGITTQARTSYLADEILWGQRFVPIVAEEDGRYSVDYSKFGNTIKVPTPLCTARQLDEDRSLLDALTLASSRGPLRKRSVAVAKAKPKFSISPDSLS
Method: as §1, §2, §3, §4

NCCc1ccc(O)c(O)c1 [Dopamine]
sensitivity of M2−K 0-25 to Dopa ([1]; Dopa 5 μM, TEVC): insensitive

CCL2: CCR2 agonist: CCL2 or MCP1
generation of electric flux after stimulating the receptor [2]: generation of an electric flux

C[N+](C)(C)CCOC(N)=O [CCh, carbachol]
change of current induced by CCh (dose response) ([3]; increasing CCh concentrations): stimulated, in a dose-dependent manner
change of current induced by CCh (dose response) ([1]; increasing CCh concentrations, M2−K 0-25): stimulated, in a dose-dependent manner

CN1[C@@H]2CC[C@H]1C[C@@H](OC(=O)C(CO)c1ccccc1)C2 (stereo partly shown) [atropine]
effect of antagonist on ACh-induced current ([3]; atropine 1 μM with ACh 5 μM): inhibits the ACh-induced current
effect of antagonist on ACh-induced current [1]: inhibits the ACh-induced current

CCN1CCCC1CNC(=O)c1cc(S(N)(=O)=O)ccc1OC (stereo not shown) [sulpiride]
effect of antagonist on quinpirole-induced decrease in current [4]: reversed
